According to PubChem BioAssay AID1963871 (Molecular Pharmacology Branch, DTP, NCI, 2024):

Tested on: KRAS-mutant PDC multicell tumor spheroid viability
Experiment: Anticancer human tumor 521955-158-R2-J5-PDC patient-derived pancreatic carcinoma cell line growth inhibition [KRAS2]
Conditions: for IC50: curve of first compound; for viability, T/C: stronger effect = lower value; active = viability on the fitted dose curve at most 10% of control; inactive = the rest
In short: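 KRAS-mutant tumor cells were grown as spheroids with HUVEC endothelial cells and human MSCs as stroma. Targeted agents were tested alone and with KRAS pathway inhibitors. Doses started at or near clinical Cmax, or 10 microM, descending half-log.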

[1] = second compound 0.1 µM, first compound 0.0316 µM
[2] = second compound 0.1 µM, first compound 0.1 µM
[3] = second compound 0.1 µM, first compound 0.316 µM
[4] = second compound 0.1 µM, first compound 1 µM
[5] = second compound 0.1 µM, first compound 3.16 µM
[6] = second compound 0.316 µM, first compound 0.0316 µM
[7] = second compound 0.316 µM, first compound 0.1 µM
[8] = second compound 0.316 µM, first compound 0.316 µM
[9] = second compound 0.316 µM, first compound 1 µM
[10] = second compound 0.316 µM, first compound 3.16 µM
[11] = second compound 1 µM, first compound 0.0316 µM
[12] = second compound 1 µM, first compound 0.1 µM
[13] = second compound 1 µM, first compound 0.316 µM
[14] = second compound 1 µM, first compound 1 µM
[15] = second compound 1 µM, first compound 3.16 µM
[16] = second compound 3.16 µM, first compound 0.0316 µM
[17] = second compound 3.16 µM, first compound 0.1 µM
[18] = second compound 3.16 µM, first compound 0.316 µM
[19] = second compound 3.16 µM, first compound 1 µM
[20] = second compound 10 µM, first compound 0.0316 µM
[21] = second compound 10 µM, first compound 0.1 µM
[22] = second compound 10 µM, first compound 0.316 µM
[23] = second compound 10 µM, first compound 1 µM
[24] = second compound 10 µM, first compound 3.16 µM
[25] = second compound 0.1 µM, first compound 10 µM
[26] = second compound 0.316 µM, first compound 10 µM
[27] = second compound 1 µM, first compound 10 µM
[28] = second compound 3.16 µM, first compound 3.16 µM
[29] = second compound 3.16 µM, first compound 10 µM
[30] = second compound 10 µM, first compound 10 µM
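Note: viability read after seven days of drug exposure.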

CC1COCCN1c1cc(-c2ccnn2C)c2ccnc(-c3ccn[nH]3)c2n1 (stereo not drawn) + C=CC(=O)N1CCN(c2nc(=O)n(-c3c(C)ccnc3C(C)C)c3nc(-c4c(O)cccc4F)c(F)cc23)C(C)C1
11.5 nM: IC50 (second compound 10 µM)
24.3 nM: IC50 (second compound 3.16 µM)
40.3 nM: IC50 (second compound 0.316 µM)
30.1 nM: IC50 (second compound 1 µM)
inactive: viability, T/C (second compound 0.1 µM, first compound 0.01 µM) 101% | viability, T/C [1] 47.9% | viability, T/C [2] 10.5% | viability, T/C [3] 13.5% | viability, T/C [4] 24.1% | viability, T/C [5] 26.9% | viability, T/C (second compound 0.316 µM, first compound 0.01 µM) 114% | viability, T/C [6] 58.5% | viability, T/C [7] 11.4% | viability, T/C [8] 13% | viability, T/C [9] 20.3% | viability, T/C [10] 28% | viability, T/C (second compound 1 µM, first compound 0.01 µM) 102% | viability, T/C [11] 47.6% | viability, T/C [12] 10.5% | viability, T/C [13] 13.6% | viability, T/C [14] 25.6% | viability, T/C [15] 29% | viability, T/C (second compound 3.16 µM, first compound 0.01 µM) 79.2% | viability, T/C [16] 41.3% | viability, T/C [17] 11.6% | viability, T/C [18] 13.7% | viability, T/C [19] 22.6% | viability, T/C (second compound 10 µM, first compound 0.01 µM) 54.1% | viability, T/C [20] 18.1% | viability, T/C [21] 13.2% | viability, T/C [22] 18.1% | viability, T/C [23] 23.4% | viability, T/C [24] 25.5%
30.2 nM: IC50 (second compound 0.1 µM)

CC1OCC2(CCN(c3cnc(Sc4ccnc(N)c4Cl)c(N)n3)CC2)C1N (stereo not drawn) + C=CC(=O)N1CCN(c2nc(=O)n(-c3c(C)ccnc3C(C)C)c3nc(-c4c(O)cccc4F)c(F)cc23)C(C)C1
inactive: viability, T/C [1] 89.8% | viability, T/C [2] 96.4% | viability, T/C [3] 76.3% | viability, T/C [4] 72% | viability, T/C [5] 97.5% | viability, T/C [25] 67.6% | viability, T/C [6] 89.4% | viability, T/C [7] 81.5% | viability, T/C [8] 76.2% | viability, T/C [9] 75.7% | viability, T/C [10] 71.6% | viability, T/C [26] 63.4% | viability, T/C [11] 101% | viability, T/C [12] 88.4% | viability, T/C [13] 91.8% | viability, T/C [14] 87.4% | viability, T/C [15] 71.7% | viability, T/C [27] 66.4% | viability, T/C [16] 92.1% | viability, T/C [17] 87.5% | viability, T/C [18] 72.3% | viability, T/C [19] 79.1% | viability, T/C [28] 62% | viability, T/C [29] 64.7% | viability, T/C [20] 66.2% | viability, T/C [21] 59.3% | viability, T/C [22] 66.2% | viability, T/C [23] 61.3% | viability, T/C [24] 54.6% | viability, T/C [30] 57.8%
> 10000 nM: IC50 (second compound 0.1 µM) | IC50 (second compound 0.316 µM) | IC50 (second compound 1 µM) | IC50 (second compound 3.16 µM) | IC50 (second compound 10 µM)

CCNC(=O)CC1N=C(c2ccc(Cl)cc2)c2cc(OC)ccc2-n2c(C)nnc21 (stereo not drawn) + C=CC(=O)N1CCN(c2nc(=O)n(-c3c(C)ccnc3C(C)C)c3nc(-c4c(O)cccc4F)c(F)cc23)C(C)C1
1100 nM: IC50 (second compound 1 µM)
474 nM: IC50 (second compound 0.1 µM)
741 nM: IC50 (second compound 3.16 µM)
1180 nM: IC50 (second compound 0.316 µM)
169 nM: IC50 (second compound 10 µM)
inactive: viability, T/C [1] 99.4% | viability, T/C [2] 93.4% | viability, T/C [3] 55.3% | viability, T/C [4] 41.1% | viability, T/C [5] 39.9% | viability, T/C [25] 35.7% | viability, T/C [6] 119% | viability, T/C [7] 98.4% | viability, T/C [8] 72.2% | viability, T/C [9] 50% | viability, T/C [10] 43.7% | viability, T/C [26] 37.1% | viability, T/C [11] 120% | viability, T/C [12] 109% | viability, T/C [13] 77% | viability, T/C [14] 52.3% | viability, T/C [15] 38.9% | viability, T/C [27] 35.8% | viability, T/C [16] 101% | viability, T/C [17] 86.7% | viability, T/C [18] 63% | viability, T/C [19] 45.4% | viability, T/C [28] 39.1% | viability, T/C [29] 37.5% | viability, T/C [20] 66.5% | viability, T/C [21] 58.6% | viability, T/C [22] 39.4% | viability, T/C [24] 29% | viability, T/C [30] 31.1%

Cn1nccc1Nc1nccc(-c2cc3c(s2)C(C)(C)N(CCN2CCOCC2)C3=O)n1 + C=CC(=O)N1CCN(c2nc(=O)n(-c3c(C)ccnc3C(C)C)c3nc(-c4c(O)cccc4F)c(F)cc23)C(C)C1
1010 nM: IC50 (second compound 10 µM)
2960 nM: IC50 (second compound 3.16 µM)
2020 nM: IC50 (second compound 0.316 µM)
2910 nM: IC50 (second compound 1 µM)
1610 nM: IC50 (second compound 0.1 µM)
inactive: viability, T/C [1] 98.9% | viability, T/C [2] 94.9% | viability, T/C [3] 76.9% | viability, T/C [4] 59.4% | viability, T/C [5] 37.9% | viability, T/C [25] 24.2% | viability, T/C [6] 125% | viability, T/C [7] 107% | viability, T/C [8] 76.9% | viability, T/C [9] 58.5% | viability, T/C [10] 47% | viability, T/C [26] 36.7% | viability, T/C [11] 117% | viability, T/C [12] 110% | viability, T/C [13] 85.3% | viability, T/C [14] 67.5% | viability, T/C [15] 42.7% | viability, T/C [27] 47.5% | viability, T/C [16] 110% | viability, T/C [17] 116% | viability, T/C [18] 84.6% | viability, T/C [19] 64.2% | viability, T/C [28] 54.1% | viability, T/C [29] 40.5% | viability, T/C [20] 78.5% | viability, T/C [21] 78.1% | viability, T/C [22] 61.3% | viability, T/C [23] 52.8% | viability, T/C [24] 41.1% | viability, T/C [30] 43.1%
